SMILES strings stand for the structures. Like-named read-outs stand apart in the source and are kept apart here.

For 72 compounds, AC50 results are on record in paper PMC7822874, “Chemoprotective antimalarials identified through quantitative high-throughput screening of Plasmodium blood and liver stage parasites” (Scientific Reports, 2021).

This assay relates to Plasmodium falciparum Dd2 asexual blood stage parasites. Description: microbe, parasite or virus in culture. The conditions noted are these: Plasmodium falciparum, DD2, Erythrocyte, 72 h. Set-up: species or system Plasmodium falciparum Dd2 in human erythrocytes; single determination (one 11-point concentration-response curve).

As for `CCOc1ccc(-c2nonc2NC(=O)c2ccc(C)cc2)cc1OCC` [NCGC00116031-01], for the setting “read-out: AC50”, the AC50 amounted to 1.68 µM. Still for that read-out and setting: the result for `Cc1cc2nc3n(c(=O)c2n1CC(=O)Nc1ccccc1C(C)C)CCCCC3` [NCGC00455404-01] reads 8.41 µM. Same read-out and setting: in the case of `COc1ccc(-c2c3c(nc4sc(C(=O)Nc5ccc(F)cc5)c(N)c24)CC(C)(C)CC3=O)cc1` [NCGC00100718-01] it was 0.944 µM; in that of `CC1=CC(C)(C)Nc2ccc(OC(=O)c3cccnc3)cc21` [MLS000111190-01], 13.3 µM.

In the case of `CCCC(O)c1nc2ccccc2n1CCCCOc1ccc(OC)cc1` (stereo not drawn) [NCGC00119455-01], the AC50 (read-out: AC50) was found to be 15 µM. On the same count and under the same terms, the result for `Cc1cc(C)c(/C=C/c2onc(C)c2[S+](=O)([O-])N2CCC(C(=O)Nc3ccc(Cl)c(C(F)(F)F)c3)CC2)c(C)c1` [NCGC00132732-01] reads 10.6 µM; that for `CCOC(=O)c1cc(-c2ccc(OC)cc2)n(CCC(=O)Nc2cccc(C(C)=O)c2)c1C` [NCGC00140940-01], 0.211 µM. Still for that read-out and setting: the result for `SC(=NCc1ccccc1)N1CCn2cccc2C1c1cccnc1` (stereo not drawn) [MLS000683224-01] reads 9.44 µM; that for `Fc1cccc(CC2CCOC3(CCNCC3)C2)c1` (stereo not drawn) [NCGC00470522-01], 13.3 µM. The same measure, in the same setting: the result for `CN1CCN(Cc2nnc(C(=O)N3CCC[C@@H]3c3ccc(Br)cc3)n2Cc2ccccc2)CC1` [NCGC00415715-01] reads 7.5 µM; that for `COc1ccccc1N1CCN(Cc2cc(C)c(C)cc2O)CC1` [MLS000571139-01], 0.376 µM; that for `CCN1CCN(Cc2ccc(NC(=O)c3cc(NC(=O)c4cncc(-c5ccc(C#N)cc5)c4)cc(OC)c3)cc2C(F)(F)F)CC1` [MLS000911575-01], 0.596 µM.

With `COc1cccc(CN2CCCC(N3CCN(c4cccc(C(F)(F)F)c4)CC3)C2)c1O` (stereo not drawn) [NCGC00428830-01], the AC50 (read-out: AC50) was determined as 0.841 µM. Same read-out and setting: the result for `Cc1ccc2c(c1)c1c3n2CCCN(Cc2ccccc2)C3CCC1` (stereo not drawn) [MLS000525489-01] reads 4.22 µM; that for `Oc1ccccc1C1=NN(c2ccccc2)C(c2ccccc2)C1` (stereo not drawn) [MLS001163829-01], 7.5 µM; that for `O=c1nc(C2CCCN(CC3CCCCC3)C2)[nH]n1-c1ccc(Cl)cc1` (stereo not drawn) [NCGC00477729-01], 6.68 µM. Consider `Clc1ccc(NNc2ccnc3cc(Cl)ccc23)cc1` [MLS000537447-01], for which the AC50 (read-out: AC50) is 1.5 µM. Take `COc1cc(C)ccc1OCCSc1nc2ccc(NC(=O)c3cccs3)cc2s1` [NCGC00118564-01]: the concentration at half-maximal activity (AC50) (read-out: AC50) was found to be 13.3 µM. Same read-out and setting: in the case of `NC1=NC(c2ccccc2C(F)(F)F)N(c2ccc(F)c(Cl)c2)C(N)=N1` (stereo not drawn) [MLS001199775-01] it was 11.9 µM. Same read-out and setting: the result for `CSc1cccc(NC(=O)Cn2c(-c3ccc(F)cc3)nc(C)c(CCO)c2=O)c1` [NCGC00470986-01] reads 13.3 µM; that for `OC1=C2C(=Nc3ccccc3SC2c2c(F)cccc2Cl)c2ccccc21` (stereo not drawn) [NCGC00108823-01], 9.44 µM.

Take `O=C(N[C@H](c1ccccn1)[C@H]1C[C@H](O)C1)c1cc(=O)n(-c2ccccc2)[nH]1` [NCGC00423856-01]: under “read-out: AC50”, the AC50 is 9.44 µM. Same read-out and setting: the result for `O=C1N=C(NC2CCCC2)C2(CCN(CC3CC3)C2)N1c1cc(F)cc(F)c1` (stereo not drawn) [NCGC00374289-01] reads 1.5 µM; that for `CN(C)Cc1cn2c(=O)n(C)cc(-c3cccc(C(F)(F)F)c3)c2n1` [NCGC00416418-01], 21.7 µM. The same measure, in the same setting: the result for `Cc1ccc(NC(=O)N2CCC(OC3CCN([S+](C)(=O)[O-])CC3)CC2)cc1F` [NCGC00445040-01] reads 15 µM; that for `O=C1NC2(CCN(C(=O)c3ccc(C(F)(F)F)cc3)CC2)COc2ccccc21` [NCGC00477468-01], 8.41 µM. Still for that read-out and setting: the result for `O=C1CC2(CCN(Cc3ccccc3)CC2)Oc2ccccc21` [NCGC00476829-01] reads 13.7 µM; that for `Fc1ccccc1CN1CCC[C@H]1c1nc(-c2ccnc(N3CCOCC3)c2)no1` [NCGC00395913-01], 15.3 µM; that for `COc1ccc(NC(=O)c2c(C)oc3ccc(O)c(CN4CCN(Cc5ccccc5)CC4)c23)cc1` [NCGC00115648-01], 2.66 µM. Take `O=C(Nc1ccc(N2CCOCC2)c(Cl)c1)c1nc[nH]n1` [MLS000072688-01]: the AC50 (read-out: AC50) is 9.44 µM.

As for `COc1cc(-c2nc(-c3ccccc3)c(-c3ccc(Br)cc3)[nH]2)cc(OC)c1O` [NCGC00100017-01], the concentration at half-maximal activity (AC50) (read-out: AC50) turned out to be 2.11 µM. Still for that read-out and setting: the result for `CN(C)CC1CSCCC1(O)c1ccccc1Cl` (stereo not drawn) [MLS000546783-01] reads 5.96 µM. In the case of `CNC(=O)c1cc(-c2ccnc(N3CCOCC3)c2)cc2c1OCCN2Cc1cccnc1` [NCGC00417111-01], the concentration at half-maximal activity (AC50) (read-out: AC50) was found to be 8.41 µM. Still for that read-out and setting: in the case of `COc1cccc(CN2CCCN(Cc3ccncc3)C(c3ccccc3)CC(=O)NCC2)c1` (stereo not drawn) [NCGC00467185-01] it was 7.5 µM. As for `Cc1cc(CN2CCC(CO)(Cc3ccccc3Cl)CC2)cc(C)c1O` [NCGC00426527-01], the concentration at half-maximal activity (AC50) (read-out: AC50) was 16.8 µM. The same measure, in the same setting: in the case of `O=C(c1ccccc1F)N1CCC2(CC1)COc1ccccc1CN2` [NCGC00477550-01] it was 4.33 µM; in that of `Cc1cccc(Cn2nnc3c(O)nc(C4CCCN(C(=O)c5ccc(C(C)(C)C)cc5)C4)nc32)c1` (stereo not drawn) [NCGC00116091-01], 2.66 µM. Still for that read-out and setting: in the case of `COc1cc(C2NCc3ccccc3-n3cccc32)ccc1O` (stereo not drawn) [MLS000047988-01] it was 2.66 µM; in that of `O=c1cc(-c2ccccc2)c2ccc3c(c2o1)CN(Cc1cccc(Cl)c1)CO3` [NCGC00116370-01], 0.841 µM. Same read-out and setting: in the case of `CCC(C)(C)n1nnnc1C(c1ccccc1OC)N1CCN(C(=O)c2ccco2)CC1` (stereo not drawn) [MLS001221981-01] it was 15 µM; in that of `CC(C)(C)c1ccc(C(=O)N2CCN(C(=O)c3nnn4c3COC(c3ccccc3)C4)CC2)cc1` (stereo not drawn) [NCGC00449161-01], 10.6 µM; in that of `Cc1noc(C)c1[S+](=O)([O-])N1CCCN(Cc2ccncc2)C(c2ccccc2)CC(=O)NCC1` (stereo not drawn) [NCGC00467205-01], 7.5 µM. Regarding `CN1CCN(c2ccc(-c3noc([C@@H]4CCCN4C4CCCCC4)n3)cn2)CC1` [NCGC00392835-01], the half-maximal activity concentration (AC50) (read-out: AC50) came to 19.3 µM. Still for that read-out and setting: the result for `COC(=O)C1=C(c2ccc(-c3ccccc3)c(F)c2)C[C@@H]2CC[C@H]1N2C(=O)NCc1cccc2ccccc12` [MLS002302696-01] reads 10.6 µM; that for `CC1=C[C@@H](CN2CCCC2)[C@H](C(C)C)C[C@H]1Cc1nnc(-c2ccc([N+](=O)[O-])cc2)o1` [NCGC00395425-01], 3.85 µM. Still for that read-out and setting: the result for `Cc1ccc(OCc2nc(C3CCN(C(=O)c4c5c(nc6ccccc46)CCCC5)CC3)no2)cc1` [NCGC00459905-01] reads 9.44 µM; that for `CCOc1cc(C(=O)N2CCc3c([nH]c4ccccc34)C2c2ccccc2)cc(OCC)c1OCC` (stereo not drawn) [NCGC00134525-01], 7.5 µM.

With `Cc1ccc(CN2C3CCCC2CC(NC(=O)Nc2cccc(F)c2)C3)cc1` (stereo not drawn) [MLS000709814-01], for the setting “read-out: AC50”, the AC50 was determined as 10.6 µM. On the same count and under the same terms, in the case of `CC(C)OCCCNc1sc([S+](=O)([O-])c2ccccc2)nc1[S+](=O)([O-])c1ccc(Cl)cc1` [NCGC00116822-01] it was 0.266 µM; in that of `CCc1cccc2c(C(CC(=O)N3CCC(C)CC3)c3cccc(C)c3)c[nH]c12` (stereo not drawn) [NCGC00473418-01], 4.73 µM; in that of `c1ccc(Cn2c(Sc3nnnn3-c3ccccc3)nnc2-c2ccccc2)cc1` [MLS000052243-01], 7.5 µM. On the same count and under the same terms, the result for `O=C(c1nnc(CN2CCC(F)(F)CC2)n1-c1cccnc1)N1CCC[C@@H]1C(c1ccccc1)c1ccccc1` [NCGC00415758-01] reads 15 µM.

As for `COc1ccc(CN2CCCCCNC(=O)CC2c2ccccc2)cc1Cn1ccnc1` (stereo not drawn) [NCGC00465444-01], the concentration at half-maximal activity (AC50) (read-out: AC50) came out at 9.44 µM. For `CCOc1nc(N=C(N)N)nc2c(C)cccc12` [MLS000570610-01], the AC50 (read-out: AC50) came to 10.6 µM.

In the case of `COc1ccc(OC)c(CN2CC(Oc3ccccc3C(=O)NCc3ccccc3)C2)c1` [NCGC00458087-01], the AC50 (read-out: AC50) turned out to be 13.3 µM. Same read-out and setting: in the case of `O=c1cc(-c2ccccc2)c2ccc3c(c2o1)CN(Cc1ccccc1)CO3` [NCGC00116340-01] it was 2.66 µM; in that of `Cc1ccc(CN2CCCC(Cc3ncc(C)n3Cc3ccccc3)C2)o1` (stereo not drawn) [NCGC00469705-01], 9.44 µM.

Compound `Cc1ccccc1CN1C(=O)C(C)N=C(c2ccccc2)c2ccccc21` (stereo not drawn) [NCGC00140509-01] displayed a half-maximal activity concentration (AC50) of 15 µM. Turning to `COc1ccc(-c2cnc3[nH]cc(CC(=O)NCc4cccnc4)c3c2)cc1OC` [NCGC00412448-01], under “read-out: AC50”, the AC50 came out at 1.53 µM. Take `CC(C)CNc1nnnc2c1sc1nc(N3CCOCC3)c3c(c12)CCCC3` [MLS000779378-01]: the concentration at half-maximal activity (AC50) (read-out: AC50) was determined as 15 µM.

In the case of `O=C(NC[C@H]1C[C@@H]2CC[N@]1C[C@@H]2CN1CCC(Cc2ccccc2)CC1)c1ccccc1` [NCGC00421103-01], the concentration at half-maximal activity (AC50) (read-out: AC50) came out at 7.69 µM. On the same count and under the same terms, in the case of `C#C[C@H]1C[N@@]2CC[C@H]1C[C@@H]2CNCc1cccc(Cl)c1` [NCGC00395254-01] it was 4.85 µM. Still for that read-out and setting: the result for `CCOC(=O)c1sc(NC(=O)c2nc3ncccn3n2)c(C(=O)OC(C)C)c1C` [NCGC00141358-01] reads 2.66 µM. Still for that read-out and setting: in the case of `COc1cc(/C=C(\C#N)c2nc3ccccc3[nH]2)cc(Cl)c1OCc1ccccc1Cl` [NCGC00102602-01] it was 5.31 µM; in that of `COC(=O)CC1Oc2ccc(Cl)cc2-n2cc(-c3ccc(F)cc3)nc21` (stereo not drawn) [NCGC00164810-01], 4.22 µM.

In the case of `CCN(CC)c1cc(C)c2cc(NC(=O)c3ccc(Br)o3)ccc2n1` [MLS000519820-01], the AC50 (read-out: AC50) came out at 6.68 µM. Same read-out and setting: in the case of `O=C(NCCc1ccncc1)c1ccc(-c2nnc3ccc(NC(=O)C4CCC4)cn23)cc1` [NCGC00429902-01] it was 2.99 µM; in that of `C1CCC(CNc2c3c(nc4nnnn24)CCCC3)CC1` [MLS000034780-01], 13.3 µM. Same read-out and setting: in the case of `C[n+]1c(-c2ccccc2)cc(-c2ccc(Cl)cc2)cc1-c1ccccc1.[O-][Cl+3]([O-])([O-])O` [MLS001018624-01] it was 6.68 µM. Regarding `Nc1nonc1-n1nnc(C(=O)N/N=C/c2ccc(F)cc2)c1-c1ccc2c(c1)OCO2` [MLS001142639-01], for the setting “read-out: AC50”, the AC50 turned out to be 0.335 µM.

Take `Cc1nc(-c2ccccc2)n(CC(=O)Nc2ccc(Cl)cc2)c(=O)c1CCO` [NCGC00470932-01]: the concentration at half-maximal activity (AC50) (read-out: AC50) was found to be 16.8 µM. Same read-out and setting: in the case of `COc1cccc(-c2cc(C(=O)Nc3cc(Cl)ccc3O)on2)c1` [NCGC00121773-01] it was 4.73 µM.
